These are literature values, as cited in patent publication US20210338713A1, “Reduction of Pulmonary Inflammation Using Therapeutic Gas Mixtures” (Brain Cancer Research Institute, priority 2020, published 2021).

One data set relates to ovine model of ARDS. The note with it: inhalation, P<0.05.
Data set [1] deals with pediatric patients with ARDS.
Another data set has as its system RDS patients. The note with it: surviving patients, six months post-treatment, low-dose iNO.
For data set [2] the following is noted: in combination with oxygen.
For data set [3] the following is noted: in vivo.

As for `[N]=O` [nitric oxide], the “arterial PO2” value in the data set on ovine model of ARDS was “increase”. In addition, the “venous admixture (Qva/QT)” value in the data set on ovine model of ARDS (without altering cardiac output) is “decrease”. Moreover, the “pulmonary arterial pressure (PAP) and resistance” value in the data set on ovine model of ARDS (without any systemic hemodynamic effects) was “decrease”. Moreover, the “patients with improved oxygenation” value in data set [1] (inhaled) was 15 of 17. Besides, the “mean pulmonary artery pressure and intrapulmonary shunt” value in data set [1] (inhaled, without changing systemic arterial pressure or pulmonary capillary wedge pressure) is “lowered”. Further, the “survival, patients with ARDS” value in data set [1] (low-dose inhaled NO (3 to 10 ppm) for 1 to 24 days, 5 of 10 patients) is 50%. Besides, the “survival, non-ARDS patients” value in data set [1] (low-dose inhaled NO (3 to 10 ppm) for 1 to 24 days, 7 of 7 patients) is 100%. The “values for select pulmonary function tests versus placebo-treated patients” value in the data set with RDS patients is given as “significantly better”.
Turning to `[Xe]` [xenon], the “concentrations at which xenon exhibits anaesthetic effects” value in data set [2] is listed as 10-70 vol. %. Moreover, in data set [3], the “toxic effects on main organs” value is “does not induce significant toxic effects”.
